# Test results reported in US8188098B2, “GPR119 receptor agonists” (Hoffmann-La Roche Inc., priority 2008, dated 2012).
# Molecular target: T1, GPR119 receptor (Mesocricetus auratus, UniProt A0A1U8CD06)
# T1 construct: which endogenously express the GPR119 receptor; host or cells: HIT-T15 hamster pancreatic islet cells
# T1 sequence (A0A1U8CD06 1-334): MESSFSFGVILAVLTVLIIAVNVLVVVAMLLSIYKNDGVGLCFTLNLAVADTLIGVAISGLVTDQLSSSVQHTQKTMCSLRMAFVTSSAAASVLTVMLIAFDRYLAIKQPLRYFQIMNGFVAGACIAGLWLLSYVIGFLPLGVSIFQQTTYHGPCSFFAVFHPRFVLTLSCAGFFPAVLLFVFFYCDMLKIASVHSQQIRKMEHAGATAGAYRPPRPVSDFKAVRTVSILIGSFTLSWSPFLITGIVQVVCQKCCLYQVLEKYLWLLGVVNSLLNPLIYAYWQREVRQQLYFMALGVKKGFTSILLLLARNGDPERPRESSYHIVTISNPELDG
# Test: cAMP assay in HIT-T15 hamster pancreatic islet cells (functional agonist activity)
# Type: cell-based
# Conditions: HIT-T15 cells endogenously expressing GPR119; 30 min at 25° C.; intracellular cAMP
# Experimental: The functional agonist activities of compounds of the invention were characterized using a cAMP assay in HIT-T15 hamster pancreatic islet cells (American Type Culture Collection, Manassas, Va., USA) which endogenously express the GPR119 receptor. The cells were cultured in Kaighn's modification of Ham's F12 medium (Invitrogen Corporation, Carlsbad, Calif., USA) containing 10% horse serum, 2.5% FBS, and 1% Pen/Strep and grown in 225 cm^2 tissue culture flasks until they reached 75-85% confluence.
# The cells were harvested 24 h prior to assay with 5 ml Versene®, washed with Kaighn/F12 medium and then plated into white 384-well plates (9000 cells/well) containing Kaighn/F12 medium. Prior to assay, the culture medium was replaced with a Kaighn/F12 medium without phenol red (50 μL/well) containing 0.5 mM 3-isobutyl-1-methylxanthine, 0.5 mg/ml BSA. The cells were incubated in the dark for 30 min at 25° C. in the absence or presence of varying concentrations of agonist (1 μL, 100% DMSO). The incubation media was discarded and replaced with the assay lysis buffer (50 μL/well) provided in the Tropix cAMP-Screen® kit (Applied Biosystems, Foster City, Calif., USA) and the plates incubated for 45 min at 37° C. The intracellular levels of cAMP generated in the HIT-T 15 cells were measured using the Tropix kit. In brief, 20 μL of the lysate was transferred into pre-coated antibody plates (384-well; Tropix kit) along with 10 μL of alkaline phosphatase conjugate and 20 μL of anti-cAMP antibody and the plates were incubated for 1 h at room temperature while shaking. The plates were then washed 5 times with wash buffer (70 μL) and tapped dry. CSPD®/Sapphire-II™ RTU substrate/enhancer solution (Applied Biosystems, Foster City, Calif., USA; 30 μL) was added and the plates were incubated for 45 min at room temperature while shaking. The signal generated was measured using a Wallac Victor V Luminometer (PerkinElmer Life And Analytical Sciences, Inc., Waltham, Mass., USA; 1 sec/well). EC50 values were calculated using the XLFit program (ID Business Solutions Ltd., Guildford, Surrey, UK).
row,Structure (SMILES),EC50 [µM]
1,"CC(C)(C)OC(=O)N1CCC(n2ncc3c(Oc4ccc5c(c4)C=CS5(=O)=O)ncnc32)CC1 [Example 78, 4-[4-(1,1-Dioxo-1H-1λ^6-benzo[b]thiophen-5-yloxy)-pyrazolo[3,4-d]pyrimidin-1-yl]-piperidine-1-carboxylic acid tert-butyl ester]",0.75
2,"CC[C@@H](C)OC(=O)N1CCC(n2ncc3c(Oc4ccc(S(C)(=O)=O)cc4)ncnc32)CC1 [Example 105, 4-[4-(4-Methanesulfonyl-phenoxy)-pyrazolo[3,4-d]pyrimidin-1-yl]-piperidine-1-carboxylic acid (R)-sec-butyl ester]",0.15
3,"CC(C)CCC(=O)N1CCC(n2ncc3c(Oc4ccc(S(C)(=O)=O)cc4)ncnc32)CC1 [Example 143, 1-{4-[4-(4-Methanesulfonyl-phenoxy)-pyrazolo[3,4-d]pyrimidin-1-yl]-piperidin-1-yl}-4-methylpentan-1-one]",0.44
4,"CS(=O)(=O)c1ccc(Oc2ncnc3c2cnn3C2CCN(Cc3ccc(F)cc3)CC2)cc1 [Example 159, 1-[1-(4-Fluoro-benzyl)-piperidin-4-yl]-4-(4-methanesulfonyl-phenoxy)-1H-pyrazolo[3,4-d]pyrimidine]",0.2
5,"Cc1ncccc1Oc1ncnc2c1cnn2C1CCN(C(=O)OC2CCCCC2)CC1 [Example 125, 4-[4-(2-Methyl-pyridin-3-yloxy)-pyrazolo[3,4-d]pyrimidin-1-yl]-piperidine-1-carboxylic acid cyclohexyl ester]",0.57
6,"COc1ccc(Oc2ncnc3c2cnn3C2CCN(C(=O)OC(C)(C)C)CC2)c(Cl)c1 [Example 44, 4-[4-(2-Chloro-4-methoxy-phenoxy)-pyrazolo[3,4-d]pyrimidin-1-yl]-piperidine-1-carboxylic acid tert-butyl ester]",0.19
7,"CC(C)(C)OC(=O)N1CCC(n2ncc3c(N4CCc5cc(S(C)(=O)=O)ccc54)ncnc32)CC1 [Example 10, 4-[4-(5-Methanesulfonyl-2,3-dihydro-indol-1-yl)-pyrazolo[3,4-d]pyrimidin-1-yl]-piperidine-1-carboxylic acid tert-butyl ester]",0.46
8,"CC(C)(C)C(=O)N1CCC(n2ncc3c(Oc4cc(F)c(F)cc4F)ncnc32)CC1 [Example 137, 2,2-Dimethyl-1-{4-[4-(2,4,5-trifluoro-phenoxy)-pyrazolo[3,4-d]pyrimidin-1-yl]-piperidin-1-yl}-propan-1-one]",1.6
9,"CC(C)(C)OC(=O)N1CCC(n2ncc3c(Oc4ccc(Br)cc4C#N)ncnc32)CC1 [Example 52, 4-[4-(4-Bromo-2-cyano-phenoxy)-pyrazolo[3,4-d]pyrimidin-1-yl]-piperidine-1-carboxylic acid tert-butyl ester]",0.75
10,"CC(C)(C)OC(=O)N1CCC(n2ncc3c(Oc4cc(F)cc(C(F)(F)F)c4)ncnc32)CC1 [Example 53, 4-[4-(3-Fluoro-5-trifluoromethyl-phenoxy)-pyrazolo[3,4-d]pyrimidin-1-yl]-piperidine-1-carboxylic acid tert-butyl ester]",0.49
11,"Cc1ncccc1Oc1ncnc2c1cnn2C1CCC(c2nc(C(C)C)no2)CC1 (stereo not shown) [Example 135, 1-[4-(3-Isopropyl-[1,2,4]oxadiazol-5-yl)-cyclohexyl]-4-(2-methyl-pyridin-3-yloxy)-1H-pyrazolo[3,4-d]pyrimidine]",0.92
12,"Cc1ncccc1Oc1ncnc2c1cnn2C1CCN(C(=O)OC2CCC2)CC1 [Example 116, 4-[4-(2-Methyl-pyridin-3-yloxy)-pyrazolo[3,4-d]pyrimidin-1-yl]-piperidine-1-carboxylic acid cyclobutyl ester]",0.55
13,"Cc1nnnn1-c1ccc(Oc2ncnc3c2cnn3[C@H]2CC[C@H](c3nc(C(C)C)no3)CC2)cc1 [Example 133, 1-[4-(3-Isopropyl-[1,2,4]oxadiazol-5-yl)-trans-cyclohexyl]-4-[4-(5-methyl-tetrazol-1-yl)phenoxy]-1H-pyrazolo[3,4-d]pyrimidine]",3.34
14,"CCOc1ccc(Oc2ncnc3c2cnn3C2CCN(C(=O)OC(C)C)CC2)c(F)c1 [Example 18, 4-[4-(4-Ethoxy-2-fluoro-phenoxy)-pyrazolo[3,4-d]pyrimidin-1-yl]-piperidine-1-carboxylic acid isopropyl ester]",0.38
15,"CC(C)OC(=O)N1CCC(n2ncc3c(Oc4c(C#N)ccc(F)c4F)ncnc32)CC1 [Example 20, 4-[4-(6-Cyano-2,3-difluoro-phenoxy)-pyrazolo[3,4-d]pyrimidin-1-yl]-piperidine-1-carboxylic acid isopropyl ester]",0.57
16,"Cn1nc(Oc2ncnc3c2cnn3C2CCN(C(=O)OC(C)(C)C)CC2)ccc1=O [Example 102, 4-[4-(1-Methyl-6-oxo-1,6-dihydro-pyridazin-3-yloxy)-pyrazolo[3,4-d]pyrimidin-1-yl]-piperidine-1-carboxylic acid tert-butyl ester]",0.47
17,"CC(C)(C)OC(=O)N1CCC(n2ncc3c(Oc4ccccc4C#N)nc(N)nc32)CC1 [Example 174, 4-[6-Amino-4-(2-cyano-phenoxy)-pyrazolo[3,4-d]pyrimidin-1-yl]-piperidine-1-carboxylic acid tert-butyl ester]",3.4

# Stronger by EC50, values ahead:
row,EC50 [µM],Structure (SMILES)
1,0.043,"CC(C)(C)OC(=O)N1CCC(n2ncc3c(Oc4ccc(S(C)(=O)=O)cc4)ncnc32)CC1 [Example 59, 4-[4-(4-Methanesulfonyl-phenoxy)-pyrazolo[3,4-d]pyrimidin-1-yl]-piperidine-1-carboxylic acid tert-butyl ester]"
2,0.14,"CS(=O)(=O)c1ccc(Oc2ncnc3c2cnn3C2CCN(Cc3ccc4c(c3)OC(F)(F)O4)CC2)cc1 [Example 163, 1-[1-(2,2-Difluoro-benzo[1,3]dioxol-5-ylmethyl)-piperidin-4-yl]-4-(4-methanesulfonyl-phenoxy)-1H-pyrazolo[3,4-d]pyrimidine]"
3,0.068,"CC(C)c1noc(N2CCC(n3ncc4c(Oc5ccc(S(C)(=O)=O)cc5F)ncnc43)CC2)n1 [Example 127, 4-(2-Fluoro-4-methanesulfonyl-phenoxy)-1-[1-(3-isopropyl-[1,2,4]oxadiazol-5-yl)-piperidin-4-yl]-1H-pyrazolo[3,4-d]pyrimidine]"
4,0.14,"CC(=O)Nc1ccc(Oc2ncnc3c2cnn3C2CCN(C(=O)OC(C)(C)C)CC2)cc1 [Example 70, 4-[4-(4-Acetylamino-phenoxy)-pyrazolo[3,4-d]pyrimidin-1-yl]-piperidine-1-carboxylic acid tert-butyl ester]"
5,0.063,"N#Cc1ccc(F)c(F)c1Oc1ncnc2c1cnn2C1CCN(C(=O)OC2CCCC2)CC1 [Example 119, 4-[4-(6-Cyano-2,3-difluoro-phenoxy)-pyrazolo[3,4-d]pyrimidin-1-yl]-piperidine-1-carboxylic acid cyclopentyl ester]"
6,0.045,"CC(C)(C)OC(=O)N1CCCC(n2ncc3c(Oc4ccc(S(C)(=O)=O)cc4)ncnc32)C1 (single isomer, unassigned) [Example 88]"
7,0.11,"CC(C)(C)OC(=O)N1CCC(n2ncc3c(Oc4ccc(Cl)cc4C#N)ncnc32)CC1 [Example 51, 4-[4-(4-Chloro-2-cyano-phenoxy)-pyrazolo[3,4-d]pyrimidin-1-yl]-piperidine-1-carboxylic acid tert-butyl ester]"
8,0.031,"CS(=O)(=O)c1ccc(Oc2ncnc3c2cnn3C2CCN(C(=O)OC3CCCC3)CC2)c(F)c1 [Example 120, 4-[4-(2-Fluoro-4-methanesulfonyl-phenoxy)-pyrazolo[3,4-d]pyrimidin-1-yl]-piperidine-1-carboxylic acid cyclopentyl ester]"
